Assay results taken from patent US20250082648A1, “COMPOSITIONS AND METHODS FOR ENHANCING KRAS INHIBITOR OR SHP2 INHIBITOR EFFICACY” (New York University, priority 2023, published 2025).

System: H23 cells
Test: CRISPR/Cas9 synthetic lethal screen with TNO155 alone
Format: cell-based, human

C[C@@H]1OCC2(CCN(c3cnc(Sc4ccnc(N)c4Cl)c(N)n3)CC2)[C@@H]1N [TNO155]
neg|lfc (knockout gene AP2M1): −1.5896
neg|lfc (knockout gene ATP6V0C): −2.4937
neg|lfc (knockout gene ATP6V1F): −1.3822
neg|lfc (knockout gene ATP6V1H): −1.2922
neg|lfc (knockout gene BUB1): −1.3761
neg|lfc (knockout gene C7orf26): −1.2403
neg|lfc (knockout gene C12orf45): −0.8919
neg|lfc (knockout gene C18orf21): −1.7774
neg|lfc (knockout gene CAPZA1): −0.8323
neg|lfc (knockout gene CARD10): −0.8745
neg|lfc (knockout gene CD3EAP): −0.9138
neg|lfc (knockout gene CENPM): −2.7542
neg|lfc (knockout gene CFDP1): −1.4115
neg|lfc (knockout gene COQ6): −0.9015
neg|lfc (knockout gene COX6B1): −1.1999
neg|lfc (knockout gene CS): −0.9482
neg|lfc (knockout gene DCST2): −1.3843
neg|lfc (knockout gene DDX52): −1.2486
neg|lfc (knockout gene DENR): −1.046
neg|lfc (knockout gene DHPS): −1.8131
neg|lfc (knockout gene DPM3): −0.9381
neg|lfc (knockout gene EGLN1): −1.2972
neg|lfc (knockout gene ELP2): −0.9643
neg|lfc (knockout gene EXOSC2): −2.2014
neg|lfc (knockout gene FASTKD5): −1.4304
neg|lfc (knockout gene FBL): −2.1994
neg|lfc (knockout gene FXN): −2.3715
neg|lfc (knockout gene G6PD): −2.0605
neg|lfc (knockout gene GATA5): −0.7392
neg|lfc (knockout gene GMPS): −1.5348
neg|lfc (knockout gene GNB2L1): −1.4387
neg|lfc (knockout gene GTF2H3): −0.8448
neg|lfc (knockout gene GTF3C1): −1.8687
neg|lfc (knockout gene HARS2): −1.9989
neg|lfc (knockout gene HIRA): −1.0969
neg|lfc (knockout gene HSPA13): −1.2857
neg|lfc (knockout gene IPO9): −1.5514
neg|lfc (knockout gene KIAA1324): −0.9092
neg|lfc (knockout gene KREMEN2): −1.0026
neg|lfc (knockout gene LARS): −2.0903
neg|lfc (knockout gene LEMD2): −1.7855
neg|lfc (knockout gene LIAS): −1.7787
neg|lfc (knockout gene LRPPRC): −1.3022
neg|lfc (knockout gene MCAT): −1.6999
neg|lfc (knockout gene MMGT1): −1.1768
neg|lfc (knockout gene MPHOSPH10): −1.2081
neg|lfc (knockout gene MRPL2): −1.5188
neg|lfc (knockout gene MRPS11): −2.1012
neg|lfc (knockout gene MRPS14): −2.7074
neg|lfc (knockout gene MTERFD1): −0.8478
neg|lfc (knockout gene MTFMT): −1.4999
neg|lfc (knockout gene MVD): −2.2878
neg|lfc (knockout gene NDUFAF4): −2.8677
neg|lfc (knockout gene NDUFS2): −1.6602
neg|lfc (knockout gene NGDN): −1.6157
neg|lfc (knockout gene NHP2): −2.4304
neg|lfc (knockout gene NUP50): −1.7194
neg|lfc (knockout gene OXA1L): −1.0359
neg|lfc (knockout gene PAXIP1): −1.2046
neg|lfc (knockout gene PELO): −1.8232
neg|lfc (knockout gene PFDN2): −1.6271
neg|lfc (knockout gene PHB): −0.6638
neg|lfc (knockout gene PHF6): −0.9513
neg|lfc (knockout gene PIGM): −0.9761
neg|lfc (knockout gene PIK3C3): −1.3101
neg|lfc (knockout gene PKN2): −1.323
neg|lfc (knockout gene PLEC): −0.9261
neg|lfc (knockout gene POLR3C): −2.1096
neg|lfc (knockout gene PRMT1): −2.4486
neg|lfc (knockout gene PTCD3): −1.5106
neg|lfc (knockout gene RABGGTA): −1.5175
neg|lfc (knockout gene RBFA): −1.2488
neg|lfc (knockout gene RBM15): −0.9128
neg|lfc (knockout gene RMND1): −2.1857
neg|lfc (knockout gene RNGTT): −1.4545
neg|lfc (knockout gene RNMTL1): −1.8816
neg|lfc (knockout gene RPF2): −1.6299
neg|lfc (knockout gene RPS2): −1.4859
neg|lfc (knockout gene RRP36): −1.7306
neg|lfc (knockout gene RSBN1): −1.1801
neg|lfc (knockout gene SDHB): −1.352
neg|lfc (knockout gene SDHC): −1.0873
neg|lfc (knockout gene SLC30A9): −0.8169
neg|lfc (knockout gene SMNDC1): −1.605
neg|lfc (knockout gene SNRPA): −0.853
neg|lfc (knockout gene SORT1): −0.7919
neg|lfc (knockout gene SS18L2): −1.8054
neg|lfc (knockout gene SYS1): −1.4135
neg|lfc (knockout gene TAF2): −1.6548
neg|lfc (knockout gene TAMM41): −1.389
neg|lfc (knockout gene TEX10): −1.2531
neg|lfc (knockout gene TFRC): −0.7641
neg|lfc (knockout gene TRAPPC3): −1.2908
neg|lfc (knockout gene TRAPPC11): −1.3146
neg|lfc (knockout gene TRMT6): −1.3112
neg|lfc (knockout gene TSC2): −1.2936
neg|lfc (knockout gene VMP1): −2.2825
neg|lfc (knockout gene XRCC3): −1.7596
neg|lfc (knockout gene YARS): −2.5691
neg|lfc (knockout gene YKT6): −1.2993
